# Key:
# Wistar rats [1] = conditions: cited from earlier work
# male NIH Swiss mice [2] = experiment: Marble burying assay; assay type: in vivo, mouse; conditions: 30 min test, rotorod before
# Excerpt: Marble burying in mice has been used to model anxiety disorders including obsessive-compulsive disorders (OCD) due to ethological study of the behavior (e.g. Gyertyan I. “Analysis of the marble burying response: Marbles serve to measure digging rather than evoke burying”, Behavioural Pharmacology 6: 24-31, (1995)) and due to the pharmacological effects of clinical standards (c.f., Njung'E K. Handley S L. “Evaluation of marble-burying behavior as a model of anxiety”, Pharmacology, Biochemistry & Behavior. 38: 63-67, (1991)); Borsini F., Podhoma J., and Marazziti, D. “Do animal models of anxiety predict anxiolytic effects of antidepressants?”, Psychopharmacology 163: 121-141, (2002)).
# House experimentally-naïve male, NIH Swiss mice (Harlan Sprague-Dawley, Indianapolis, Ind.) weighing between 28-35 g in groups of 12 for at least three days prior to testing in a vivarium with 12 h light and dark cycles. Conduct experiments during the light cycle in a dimly lit experimental testing room. Dose mice with vehicle or test compound and, after a specified pretreatment interval (generally 30 min.), place each mouse individually on a rotorod (Ugo Basile 7650) operating at a speed of 6 revolutions/min. and observe for falling. […]
# Clinically effective standard compounds suppress marble burying at doses that are devoid of motor-impairing effects as measured on the rotorod. […]
# male NIH Swiss mice [3] = experiment: Nestlet shredding; assay type: in vivo, mouse; conditions: 30 min test
# Excerpt: Mice naturally will construct nests of material available in their living environment. Since this behavior is obsessive in nature, it has been used to model OCD (Xia Li, Denise Morrow and Jeffrey M. Witkin, “Decreases in nestlet shredding of mice by serotonin uptake inhibitors: comparison with marble burying”, Psychopharmacology, submitted Jul. 14, 2003). House experimentally-naïve male, NIH Swiss mice (Harlan Sprague-Dawley, Indianapolis, Ind.) weighing between 28-35 g in groups of 12 for at least three days prior to testing in a vivarium with a 12 h light/dark cycle. Conduct experiments during the light cycle in an experimental room with normal overhead fluorescent lighting. Dose mice with vehicle or test compound and after a specified pretreatment interval (generally 30 min.), place the mice individually in a 17×28×12 cm high plastic tub with about 5 mm sawdust shavings on the floor along with a pre-weighed multi-ply gauze pad (51 mm square). After 30 min., weigh the remainder of the gauze pad not removed by the mouse. Determine the weight of the gauze used for nestlet construction by subtraction. Compare the results for test compound treated mice to the results for vehicle control treated mice with Dunnett's test.
# Clinically effective OCD treatment standard compounds suppress nestlet shredding at doses that are devoid of motor-impairing effects as measured by the rotorod test. […]
# Wistar rats [4] = experiment: Schedule-induced polydipsia; assay type: in vivo, rat
# Excerpt: Schedule-Induced Polydipsia
# Food-deprived rats exposed to intermittent presentations of food will drink amounts of water that are far in excess of their normal daily intake and in excess of their intake when given all of their food at one time (Falk J L. “Production of polydipsia in normal rats by an intermittent food schedule”, Science 133: 195-196, (1961)). This excessive behavior is persistent and has been used to model OCD.
# Maintain Wistar rats on a food restricted diet (to maintain 85% free feeding weight), but with free access to water. Train the rats in a behavioral testing chamber to press a lever to receive a food pellet under a fixed interval schedule, such that the rats are rewarded with a 45 mg food pellet the first time they press a lever after a 120 second interval has elapsed. The fixed interval is then reset to 120 seconds and the process repeated. Thus, during a 90 min. test session, the rats can earn a maximum of 45 pellets. The behavioral chamber is also equipped with a water bottle that is weighed before and after the session to determine the amount of water consumed.
# Administer test compounds on Tuesdays and Fridays. […] Compare the rates of lever pressing and water consumption for each animal's performance during sessions after test compound treatment with that animal's performance during control sessions, expressed as a percent of the control rate. […]
# male NIH Swiss mice [5] = conditions: cited from earlier work
smiles,measurement,setting,value
CN(C)CCCN1c2ccccc2CCc2ccc(Cl)cc21 [chlomipramine],Schedule-induced polydipsia (clinically effective OCD treatment standards),Wistar rats [1],"suppress schedule-induced polydipsia without producing notable changes in motor patterns, food intake, or behavior the following day"
CN(C)CCCN1c2ccccc2Sc2ccc(Cl)cc21 [chlorpromazine],Marble burying behavior (with rotorod performance),male NIH Swiss mice [2],decrease marble burying only at doses that also disrupt rotorod performance
C[C@H](N)Cc1ccccc1 [d-amphetamine],Nestlet shredding (with motor effects),male NIH Swiss mice [3],decreases nestlet shredding only at doses that produce motoric side effects
same,Suppression of excessive drinking with co-administration of 5-HT2C antagonist,Wistar rats [4],not prevented by the 5HT2C receptor antagonist
same,Schedule-induced polydipsia (excessive drinking),Wistar rats [4]; 90 min session,decreases excessive drinking only at behaviorally stimulating doses
CNCCC(Oc1ccc(C(F)(F)F)cc1)c1ccccc1 (stereo not shown) [fluoxetine],"Marble burying (clinical standards, literature)",male NIH Swiss mice [5],decrease burying
same,Schedule-induced polydipsia (clinically effective OCD treatment standards),Wistar rats [1],"suppress schedule-induced polydipsia without producing notable changes in motor patterns, food intake, or behavior the following day"

# Reference: patent US7981882B2, “6-N-linked heterocycle-substituted 2,3,4,5-tetrahydro-1H-benzo[d]azepines as 5-HT2C receptor agonists” (Eli Lilly and Company, priority 2005, dated 2011)
